The values that follow come from patent US20080064052A1, “Crystal of a Receptor-Ligand Complex and methods of use” (priority 2006, published 2008).

Assay [1] concerns the target T1, mouse EphB4 ectodomain Fc fusion protein (Mus musculus, UniProt P54761).
T1 sequence (P54761 16-539 limits assumed): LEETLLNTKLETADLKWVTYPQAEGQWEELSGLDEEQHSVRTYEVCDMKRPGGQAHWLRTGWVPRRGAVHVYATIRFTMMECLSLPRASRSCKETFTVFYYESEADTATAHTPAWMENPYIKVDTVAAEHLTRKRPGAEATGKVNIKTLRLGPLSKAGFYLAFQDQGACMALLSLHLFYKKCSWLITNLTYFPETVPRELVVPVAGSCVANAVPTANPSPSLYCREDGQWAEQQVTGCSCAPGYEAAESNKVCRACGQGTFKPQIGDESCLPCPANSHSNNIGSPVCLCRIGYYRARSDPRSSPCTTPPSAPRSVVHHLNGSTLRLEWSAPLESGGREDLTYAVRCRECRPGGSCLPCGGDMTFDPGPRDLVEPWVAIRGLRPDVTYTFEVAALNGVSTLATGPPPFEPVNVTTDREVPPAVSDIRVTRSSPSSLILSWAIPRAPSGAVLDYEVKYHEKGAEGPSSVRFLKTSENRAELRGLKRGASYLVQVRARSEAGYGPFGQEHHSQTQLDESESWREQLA
In words: ELISA competition: inhibition of mouse ephrin-B2 alkaline phosphatase (AP) binding to immobilized mouse EphB4 ectodomain Fc. Conditions: murine receptor; for IC50: IC50 for inhibition of mouse ephrin-B2 AP binding to immobilized mouse EphB4 ectodomain Fc, ELISA binding assay.

Assay [2] addresses T2, human EphB4 ephrin-binding domain (Homo sapiens, UniProt P54760).
T2 sequence (P54760 17-196): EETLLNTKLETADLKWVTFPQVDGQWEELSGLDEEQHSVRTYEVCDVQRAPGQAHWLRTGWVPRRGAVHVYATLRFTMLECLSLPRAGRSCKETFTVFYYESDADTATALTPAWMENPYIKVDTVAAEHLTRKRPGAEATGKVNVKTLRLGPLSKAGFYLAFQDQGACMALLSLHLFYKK
The assay is described as follows: Isothermal titration calorimetry (ITC) binding to EphB4 (17-196). The conditions noted are these: 25° C., 50 mM Tris pH 7.8, 150 mM NaCl. As for the experimental part: Peptides were dissolved into the same buffer used for the dialysis of EphB4. […] ITC experiments were performed with a Microcal MCS ITC at 25° C. Following an initial injection of 2 μl, titrations were performed by making 20 13 μl injections of peptide into EphB4 in the sample cell to produce an approximate final 2:1 ratio of injectant to sample in the cell. […] Prior to loading the sample cell, EphB4 was centrifuged at 18,000 g for 5 min at 4° C. to remove aggregates and degassed for 5 minutes at room temperature. […] Dilution data were fit to a line and subtracted from the corresponding titration data.
For orientation: ITC needs no label: the signal is the heat of the interaction.

Assay [3] addresses T3, mouse EphB4 ectodomain Fc fusion protein (mouse EphB4-Fc-His, R&D Systems) (mouse, UniProt P54761 16-539).
T3 construct: extracellular domain; also called murine EphB4; not shown: Fc part of a bought fusion protein; His tag of the bought protein
T3 sequence (looked up): T1 sequence (P54761 16-539 limits assumed)
In words: competition ELISA: inhibition of mouse ephrin-B2 AP binding to immobilized mouse EphB4 ectodomain Fc. As for the experimental part: The ability of peptides to compete the binding of mouse ephrin-B2 alkaline phosphatase to immobilized mouse EphB4-Fc-His (R&D Systems) was measured by ELISA as previously described (Koolpe et al., 2005).
On the technique in general: ELISA stands for enzyme-linked immunosorbent assay.

For assay [4], the target named is T4, human EphB4 ephrin-binding domain, EphB4 (17-196) (human, UniProt P54760 17-196).
T4 sequence: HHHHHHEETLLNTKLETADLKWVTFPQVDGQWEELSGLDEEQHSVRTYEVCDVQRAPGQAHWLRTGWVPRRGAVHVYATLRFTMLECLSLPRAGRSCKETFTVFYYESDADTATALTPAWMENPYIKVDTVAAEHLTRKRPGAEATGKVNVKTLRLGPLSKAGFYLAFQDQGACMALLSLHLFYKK
The assay is described as follows: ITC at 25 °C, peptide injected into human EphB4 (17-196). On the procedure:
Isothermal titration calorimetry and ELISA experiments: EphB4and ephrin-B2 were either dialyzed or buffer exchanged into 50 mM Tris-Cl (pH 7.8 at 25° C.), 150 mM NaCl, 1 mM CaCl₂, prior to use in calorimetry experiments. Peptides were dissolved into the same buffer used for the dialysis of EphB4. The concentration of EphB4, ephrin-B2 and the peptides was determined by measuring the A₂₈₀ and using the theoretical-extinction coefficient (Gill and von Hippel, 1989). ITC experiments were performed with a Microcal MCS ITC at 25° C. Following an initial injection of 2 μl, titrations were performed by making 20 13 μl injections of peptide into EphB4 in the sample cell to produce an approximate final 2:1 ratio of injectant to sample in the cell. For most titrations the sample cell contained 15 μM EphB4 and the injection syringe contained a 200 μM solution of the peptide. Titrations with ephrin-B2 contained 13 μM EphB4 in the sample cell and 290 μM ephrin-B2 in the syringe. Prior to loading the sample cell, EphB4 was centrifuged at 18,000 g for 5 min at 4° C. to remove aggregates and degassed for 5 minutes at room temperature. Corrections for heats of dilution for the peptides and ephrin-B2 were determined by performing titrations of peptide or ephrin-B2 solutions into buffer. Dilution data were fit to a line and subtracted from the corresponding titration data. Titration data were analyzed using Origin ITC software (Version 5.0, Microcal Software Inc.) and curves were fit to a single binding site model (Wiseman et al., 1989). […] A lower limit for the binding constant was determined by performing a titration in which the sample cell contained 30 μM EphB4 and the injection syringe contained a 1.45 mM solution of the peptide, producing a final ratio of peptide to EphB4 of 10:1. The data was fit assuming a stoichiometry of 1 and at least 60% saturation of binding at the final peptide concentration (Turnbull and Daranas, 2003).

Several values for one entry are separate records, joined by “and”; a condition that tells them apart may be missing. Equal values may be shown once. Read-outs that look alike come from different tables or passages of the source. Ends that are not written are not given here. Peptide text beside a SMILES is read from it. * marks the point of attachment. Biotin = O=C1N[C@H]2[C@H](CS[C@H]2CCCCC(=O)*)N1

In general, IC50 refers to the midpoint of a concentration-inhibition curve. Read a low IC50 as higher potency. In turn, `CC[C@H](C)[C@H](NC(=O)[C@@H]1CCCN1C(=O)CNC(=O)[C@H](CC(N)=O)NC(=O)[C@@H]1CCCN1C(=O)[C@H](CO)NC(=O)[C@H](Cc1ccccc1)NC(=O)[C@@H](N)CC(C)C)C(=O)N[C@@H](C)C(=O)N[C@@H](CCCNC(=N)N)C(=O)N[C@@H](C)C(=O)N[C@@H](Cc1c[nH]c2ccccc12)C(=O)O` [LFSP-RAW] (H-LFSPNGPIARAW-OH; N-terminus and C-terminus assumed) had an IC50 in assay [1] of over 10 µM. Further, in assay [2] (1 mM CaCl2), the TΔS came to 8.79 ± 1.7 kJ/mol, the ΔG is -31 ± 0.42 kJ/mol and the ΔH is -22.2 ± 2.1 kJ/mol.
Molecule `CC[C@H](C)[C@H](NC(=O)[C@@H]1CCCN1C(=O)CNC(=O)[C@H](CC(N)=O)NC(=O)[C@@H]1CCCN1C(=O)[C@H](CO)NC(=O)[C@H](Cc1ccccc1)NC(=O)[C@H](CC(C)C)NC(=O)[C@H](Cc1ccc(O)cc1)NC(=O)[C@@H](N)CC(N)=O)C(=O)N[C@@H](C)C(=O)N[C@@H](CCCNC(=N)N)C(=O)N[C@@H](C)C(=O)N[C@@H](Cc1c[nH]c2ccccc12)C(=O)O` [NYLF-RAW] (H-NYLFSPNGPIARAW-OH; N-terminus and C-terminus assumed) gave an IC50 in assay [1] of 0.04 µM. In assay [2] (1 mM CaCl2), this molecule came in with a TΔS of -23.8 ± 0.42 kJ/mol, a ΔG of -41 ± 0.42 kJ/mol and a ΔH of -64.9 ± 0.42 kJ/mol.
A word on the Kd: it is the constant that tells how readily two partners part at equilibrium. For the molecule `CC[C@H](C)[C@H](NC(=O)[C@@H]1CCCN1C(=O)CNC(=O)[C@H](CC(N)=O)NC(=O)[C@@H]1CCCN1C(=O)[C@H](CO)NC(=O)[C@H](Cc1ccccc1)NC(=O)[C@H](CC(C)C)NC(=O)[C@H](Cc1ccc(O)cc1)NC(=O)[C@H](CC(N)=O)NC(=O)[C@@H](N)[C@@H](C)O)C(=O)N[C@@H](C)C(=O)N[C@@H](CCCNC(=N)N)C(=O)N[C@@H](C)C(=O)N[C@@H](Cc1c[nH]c2ccccc12)C(=O)O` [TNYL-RAW] (H-TNYLFSPNGPIARAW-OH; N-terminus assumed), the IC50 in assay [1] is ~0.015 µM and 0.015 µM. In assay [2] (1 mM CaCl2), the TΔS was -20.5 ± 0.84 kJ/mol; the ΔG is -41 ± 0.42 kJ/mol; the ΔH was -61.5 kJ/mol and -61.5 ± 0.84 kJ/mol. In addition, the equilibrium dissociation constant (Kd) in assay [2] (Kd, 1 mM CaCl2) is 0.07 µM.
In the case of `CC[C@H](C)[C@H](NC(=O)[C@@H]1CCCN1C(=O)CNC(=O)[C@H](CC(N)=O)NC(=O)[C@@H]1CCCN1C(=O)[C@H](CO)NC(=O)[C@H](Cc1ccccc1)NC(=O)[C@H](CC(C)C)NC(=O)[C@H](Cc1ccc(O)cc1)NC(=O)[C@H](CC(N)=O)NC(=O)[C@@H](N)[C@@H](C)O)C(=O)N[C@@H](C)C(=O)O` [TNYL], the IC50 in assay [1] is ~150 µM and 150 µM. In addition, the “fold less potent than TNYL-RAW (IC50)” value in assay [1] (ratio of IC50 values) was 10,000 fold. The ΔH in assay [2] (1 mM CaCl2) is -40.2 ± 1.3 kJ/mol. In addition, in assay [2] (1 mM CaCl2, read-out: Kd), the Kd was at least 140 µM.
For the molecule `CC[C@H](C)[C@H](NC(=O)[C@@H]1CCCN1C(=O)CNC(=O)[C@H](CC(N)=O)NC(=O)[C@@H]1CCCN1C(=O)[C@H](CO)NC(=O)[C@H](Cc1ccccc1)NC(=O)[C@H](CC(C)C)NC(=O)[C@@H](N)Cc1ccc(O)cc1)C(=O)N[C@@H](C)C(=O)N[C@@H](CCCNC(=N)N)C(=O)N[C@@H](C)C(=O)N[C@@H](Cc1c[nH]c2ccccc12)C(=O)O` [YLFS-RAW] (H-YLFSPNGPIARAW-OH; N-terminus and C-terminus assumed), in assay [1], the IC50 came to 0.04 µM. Besides, in assay [2] (1 mM CaCl2), the TΔS was -17.2 ± 1.7 kJ/mol, the ΔG was -40.6 ± 0.84 kJ/mol and the ΔH was -57.7 ± 2.1 kJ/mol.

B1: ephrin-B2 Fc (Fc fusion, not shown: a dimerising Fc or GST; large carriers; small tags and cut ends)
chain: RSIVLEPIYWNSSNSKFLPGQGLVLYPQIGDKLDIICPKVDSKTVGQYEYYKVYMVDKDQADRCTIKKENTPLLNCARPDQDVKFTIKFQEFSPNLWGLEFQKNKDYYIISTSNGSLEGLDNQEGGVCQTRAMKILMKVGQDASSAGSARNHGPTRRPELEAGTNGRSSTTSPFVKPNPGSSTDGNSAGHSGNNLLGSEVALFA
B1 yielded an IC50 in assay [3] of 0.009 µM. This lies in the single-digit nanomolar range.
In assay [4], NYLFSPNGPIARAW [NYLF-RAW peptide (NYLFSPNGPIARAW)] yielded a Kd of 0.065 µM, a TΔS of -23.8 kJ/mol, a ΔG of -41 kJ/mol and a ΔH of -64.9 kJ/mol.

B2: Human ephrin-B2 monomer (ligand)
chain: IVLEPIYWNSSNSKFLPGQGLVLYPQIGDKLDIICPKVDSKTVGQYEYYKVYMVDKDQADRCTIKKENTPLLNCAKPDQDIKFTIKFQEFSPNLWGLEFQKNKDYYIISTSNGSLEGLDNQEGGVCQTRAMKILMKVG
Regarding B2, in assay [3], the IC50 came out at 0.01 µM.
In assay [4], YLFSPNGPIARAW [YLFS-RAW peptide (YLFSPNGPIARAW)] came in with a Kd of 0.08 µM, a TΔS of -17.2 kJ/mol, a ΔG of -40.6 kJ/mol and a ΔH of -57.7 kJ/mol.
For TNYLFSPNGPIAGSGSK(Biotin) [TNYL-biotin peptide (TNYLFSPNGPIAGSGSK-biotin)], the half-maximal inhibitory concentration (IC50) in assay [3] came to 50 µM.
